Experimental data taken from article PMC1307573 (Journal of Insect Science, 2005).
pEC50: −log10 of the molar value.

What was measured:
[1] = NO donor; cited from earlier work
[2] = molecular target: Gyc-88EL/89Da (Drosophila melanogaster, UniProt Q8INF0+Q9VEU6); assay type: biochemical
[3] = molecular target: T1, Gyc-88EL/89Db (Drosophila melanogaster, UniProt Q8INF0+Q9VEU5); assay type: biochemical; conditions: for activation by NO-independent activator: COS-7 cell extracts, 4mM Mg2+
[4] = molecular target: T2, Gyc-88EL (Drosophila melanogaster, UniProt Q8INF0); assay type: biochemical
T2 sequence (Q8INF0 1-1097): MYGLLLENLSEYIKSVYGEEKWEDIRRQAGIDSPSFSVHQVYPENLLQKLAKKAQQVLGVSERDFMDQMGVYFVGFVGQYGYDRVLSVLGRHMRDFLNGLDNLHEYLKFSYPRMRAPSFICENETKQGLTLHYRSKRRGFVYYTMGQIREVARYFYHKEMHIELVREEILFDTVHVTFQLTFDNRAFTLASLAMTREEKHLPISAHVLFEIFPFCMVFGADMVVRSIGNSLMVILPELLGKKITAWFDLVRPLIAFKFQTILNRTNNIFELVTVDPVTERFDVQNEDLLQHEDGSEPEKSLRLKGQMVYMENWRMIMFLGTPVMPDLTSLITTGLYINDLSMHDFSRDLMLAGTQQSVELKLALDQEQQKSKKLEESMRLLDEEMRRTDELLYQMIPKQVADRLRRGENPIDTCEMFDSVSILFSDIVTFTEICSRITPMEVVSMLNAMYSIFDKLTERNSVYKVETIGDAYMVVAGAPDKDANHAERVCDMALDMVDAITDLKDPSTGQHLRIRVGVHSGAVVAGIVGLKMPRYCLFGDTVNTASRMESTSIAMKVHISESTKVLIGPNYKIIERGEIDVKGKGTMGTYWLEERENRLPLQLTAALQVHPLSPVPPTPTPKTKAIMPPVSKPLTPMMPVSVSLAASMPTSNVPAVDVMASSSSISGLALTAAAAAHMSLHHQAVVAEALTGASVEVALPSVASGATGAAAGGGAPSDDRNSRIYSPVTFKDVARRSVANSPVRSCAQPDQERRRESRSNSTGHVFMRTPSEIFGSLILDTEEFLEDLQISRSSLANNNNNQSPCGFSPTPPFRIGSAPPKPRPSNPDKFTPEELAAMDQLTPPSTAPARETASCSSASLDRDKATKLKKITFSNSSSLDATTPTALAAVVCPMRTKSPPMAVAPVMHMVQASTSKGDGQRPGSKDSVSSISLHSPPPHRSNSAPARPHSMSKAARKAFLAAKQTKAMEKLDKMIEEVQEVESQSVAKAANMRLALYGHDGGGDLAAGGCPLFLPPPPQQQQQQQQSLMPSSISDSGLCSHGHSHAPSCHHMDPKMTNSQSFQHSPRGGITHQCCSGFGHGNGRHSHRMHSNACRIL

[5] = molecular target: Gycα-99B/β-100B (Drosophila melanogaster, UniProt Q07093+Q9VA09); assay type: biochemical
[6] = molecular target: T2, Gyc-88EL; conditions: ref Langlais et al. 2004, cited from earlier work
[7] = molecular target: T1, Gyc-88EL/89Db; conditions: ref Langlais et al. 2004; cited from earlier work

T1 sequence (Q9VEU5 whole entry, one chain of several): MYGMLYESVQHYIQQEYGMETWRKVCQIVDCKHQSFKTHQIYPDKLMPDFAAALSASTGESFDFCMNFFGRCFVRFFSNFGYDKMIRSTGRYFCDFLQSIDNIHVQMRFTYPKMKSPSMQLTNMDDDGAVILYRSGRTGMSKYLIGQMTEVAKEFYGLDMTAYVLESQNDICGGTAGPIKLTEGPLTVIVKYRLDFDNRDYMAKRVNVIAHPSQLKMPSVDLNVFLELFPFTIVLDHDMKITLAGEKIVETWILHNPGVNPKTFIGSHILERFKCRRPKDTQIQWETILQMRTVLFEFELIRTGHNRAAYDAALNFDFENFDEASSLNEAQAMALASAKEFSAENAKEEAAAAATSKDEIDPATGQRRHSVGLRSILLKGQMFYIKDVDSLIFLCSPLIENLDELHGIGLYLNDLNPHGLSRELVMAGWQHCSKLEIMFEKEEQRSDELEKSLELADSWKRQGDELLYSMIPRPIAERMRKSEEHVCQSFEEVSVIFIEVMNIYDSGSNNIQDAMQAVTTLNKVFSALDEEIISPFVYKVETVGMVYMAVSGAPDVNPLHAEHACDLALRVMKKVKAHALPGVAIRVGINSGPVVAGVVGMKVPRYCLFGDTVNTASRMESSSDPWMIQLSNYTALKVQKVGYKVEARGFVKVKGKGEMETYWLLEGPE
Chain of Gyc-88EL/89Da (Q9VEU6 whole entry, one chain of several): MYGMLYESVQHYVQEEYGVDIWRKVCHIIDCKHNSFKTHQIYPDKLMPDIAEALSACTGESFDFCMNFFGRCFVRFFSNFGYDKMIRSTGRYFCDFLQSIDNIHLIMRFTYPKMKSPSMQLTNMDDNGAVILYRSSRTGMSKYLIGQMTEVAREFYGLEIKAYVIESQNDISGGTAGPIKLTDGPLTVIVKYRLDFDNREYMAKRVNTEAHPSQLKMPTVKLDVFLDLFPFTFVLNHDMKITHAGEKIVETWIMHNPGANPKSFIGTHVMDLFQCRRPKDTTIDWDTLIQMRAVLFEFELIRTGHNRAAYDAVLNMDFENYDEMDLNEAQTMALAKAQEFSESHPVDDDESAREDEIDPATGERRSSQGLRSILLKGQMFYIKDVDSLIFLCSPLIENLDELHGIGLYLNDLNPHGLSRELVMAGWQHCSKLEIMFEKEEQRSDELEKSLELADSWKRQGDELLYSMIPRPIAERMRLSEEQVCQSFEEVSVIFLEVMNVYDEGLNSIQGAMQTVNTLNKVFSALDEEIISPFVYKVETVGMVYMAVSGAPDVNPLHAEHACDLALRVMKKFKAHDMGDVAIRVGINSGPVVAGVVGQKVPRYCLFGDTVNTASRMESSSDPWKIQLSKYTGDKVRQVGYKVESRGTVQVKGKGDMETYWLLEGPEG

SMILES: CCNCCN(CC)N(O)N=O [NOC-12]
- half-life [1]: 5.45 h
- pEC50 [2]: ~5.70
- pEC50 [3]: ~5.70

SMILES: Nc1nc2c(ncn2[C@@H]2O[C@H](COP(=O)(O)OP(=O)(O)OP(=O)(O)O)[C@@H](O)[C@H]2O)c(=O)[nH]1 [GTP]
- Vmax Mn/Mg ([4]; ratio of Vmax in Mn2+ to Mg2+): 1.71
- Vmax Mn/Mg ([5]; ratio of Vmax in Mn2+ to Mg2+): 96.7
- Vmax Mn/Mg ([2]; ratio of Vmax in Mn2+ to Mg2+): 46.9
- Vmax Mn/Mg ([3]; ratio of Vmax in Mn2+ to Mg2+): 1.81

SMILES: CC(=O)NC(C(=O)O)C(C)(C)SN=O (centres unmarked) [SNAP, S-nitroso-N-acetylpenicillamine]
- EC50 for activation ([4]; COS-7 cell extracts, 4mM Mg2+): not saturated with 100 μM SNAP
- pEC50 [2]: ~5.00
- pEC50 [3]: ~5.00

SMILES: O=c1onc2cnc3ccccc3n12 [ODQ, 1H-[1,2,4]oxadiazolo [4,3,-a]quinoxaline-1-one]
- inhibition of the activation by sodium nitroprusside [6]: ineffective
- blocking of the NO-stimulation ([5]; all forms of the soluble guanylyl cyclases): effective at blocking the NO-stimulation
- inhibition of NOC-12-stimulated activity ([2]; 100 μM ODQ, data not shown): inhibited
- DEA-NONOate-stimulated guanylyl cyclase activity in the presence of ODQ ([3]; 1 μM DEA-NONOate + 100 μM ODQ, 676 ± 70 in the absence): 141 ± 21 fmoles cGMP/min/mg protein
- inhibition of NOC-12-stimulated activity ([3]; 100 μM ODQ, data not shown): inhibited
- basal guanylyl cyclase activity in the presence of ODQ ([3]; 100 μM ODQ, 208 ± 19 in the absence): 237 ± 13 fmoles cGMP/min/mg protein

SMILES: Nc1nc(-c2nn(Cc3ccccc3F)c3ncccc23)ncc1C1CC1 [BAY 41-2272]
- activation by NO-independent activator ([4]; COS-7 cell extracts, 4mM Mg2+): None of the atypical guanylyl cyclase subunit combinations showed any activation
- pEC50 [5]: 5.14
- activation at 30 μM ([5]; 30 μM, 4mM Mg2+): over 100 fold
- activation by NO-independent activator ([2]; COS-7 cell extracts, 4mM Mg2+): None of the atypical guanylyl cyclase subunit combinations showed any activation
- activation by NO-independent activator [3]: None of the atypical guanylyl cyclase subunit combinations showed any activation

SMILES: OCc1ccc(-c2nn(Cc3ccccc3)c3ccccc23)o1 [YC-1]
- activation by NO-independent activator ([4]; COS-7 cell extracts, 4mM Mg2+): insensitivity
- activation by NO-independent activator [5]: only activate the conventional enzyme
- activation by NO-independent activator ([2]; COS-7 cell extracts, 4mM Mg2+): insensitivity
- activation by NO-independent activator [3]: insensitivity

SMILES: CCN(CC)/[N+]([O-])=N/O [DEA-NONOate, diethylamine- (DEA)-NONOate]
- activation at 100 μM ([6]; 100 μM): did not significantly activate
- activation at 100 μM [7]: did not significantly activate
- maximal stimulation of guanylyl cyclase activity ([4]; COS-7 cell extracts, 4mM Mg2+): No stimulation
- maximal stimulation of guanylyl cyclase activity ([2]; COS-7 cell extracts, 4mM Mg2+): No stimulation
- pEC50 [3]: ~7.00
- DEA-NONOate-stimulated guanylyl cyclase activity ([3]; 1 μM DEA-NONOate, absence of ODQ, basal 208 ± 19): 676 ± 70 fmoles cGMP/min/mg protein
- concentration of maximal activation ([3]; bell-shaped response): about 1 μM
